Earlier results, collected in patent US5300300A, “Controlled release gastroresistant pharmaceutical formulations for oral administration containing bile acids and their salts” (Alfa Wassermann S.p.A., priority 1991, dated 1994).

Key:
[1] = complete solubilization takes place only at this pH

C[C@H](CCC(=O)O)[C@H]1CC[C@H]2[C@@H]3[C@@H](O)C[C@@H]4C[C@H](O)CC[C@]4(C)[C@H]3CC[C@]12C [ursodeoxycholic acid]
dissolution in the intestine (after having crossed the stomach unabsorbed and undissolved): dissolve very slowly in the intestine
intestinal pH needed for complete solubilization and absorption (intestinal pH, completely solubilized and absorbed only when exceeded): > 8.4 pH
pH of complete solubilization [1]: 8.47 pH
